Reference: patent US9359297B2, “Spirolactam derivatives and uses of same” (H. Lundbeck A/S, priority 2009, dated 2016)

These compounds were tested against T1, human metabotropic glutamate receptor 5 (hmGluR5) (Homo sapiens, UniProt P41594) (assay: Calcium mobilization (FLIPR) assay for negative allosteric modulation, EC80 glutamate, hmGluR5 in HEK 293). Settings: HEK293; hmGluR5, inhibition of EC80 glutamate response; read-out: FLIPR maximum inhibition.
T1 construct: expressed in transfected cells
Type: cell-based
Method: The cDNA for rat metabotropic glutamate receptor 5 (rmGluR5) and the cDNA for human metabotropic glutamate receptor 5 (hmGluR5) were generous gifts from S. Nakanishi (Kyoto University, Kyoto, Japan). The rmGluR5 or hmGluR5 was stably expressed in a HEK 293 cell line and grown in Dulbecco's Modified Eagle Medium (DMEM) (Invitrogen, Carlsbad, Calif.) with supplements (10% bovine calf serum, 4 mM glutamine, 100 units/mL penicillin, 100 μg/mL streptomycin and 0.75 mM G1418) at 37° C., 5% CO2. Twenty-four hours prior to assay, cells were seeded into 384-well black wall microtiter plates coated with poly-D-lysine. Just prior to assay, media was aspirated and cells dye-loaded (25 μL/well) with 3 μM Fluo-4/0.01% pluronic acid in assay buffer (Hank's Balanced Saline Solution (HBSS)): 150 mM NaCl, 5 mM KCl, 1 mM CaCl2, 1 mM MgCl2, plus 20 mM N-2-Hydroxyethylpiperazine-N′-2-ethanesulfonic acid (HEPES), pH 7.4, 0.1% bovine serum albumin (BSA) and 2.5 mM probenicid) for 1 hour in 5% CO2 at 37° C. After excess dye was discarded, cells were washed in assay buffer and layered with a final volume equal to 30 μL/well. Basal fluorescence is monitored in a fluorometric imaging plate reader (FLIPR) (Molecular Devices, Sunnyvale, Calif.) with an excitation wavelength of 488 nm and an emission range of 500 to 560 nm. Laser excitation energy was adjusted so that basal fluorescence readings were approximately 10,000 relative fluorescent units. Cells were stimulated with an EC20 or an EC80 concentration of glutamate in the presence of a compound to be tested, both diluted in assay buffer, and relative fluorescent units were measured at defined intervals (exposure=0.6 sec) over a 3 min period at room temperature. Basal readings derived from negative controls were subtracted from all samples. Maximum change in fluorescence was calculated for each well. Concentration-response curves derived from the maximum change in fluorescence were analyzed by nonlinear regression (Hill equation). A negative modulator can be identified from these concentration-response curves if a compound produces a concentration dependent inhibition of the EC80 glutamate response.

T1 sequence (P41594 21-1212): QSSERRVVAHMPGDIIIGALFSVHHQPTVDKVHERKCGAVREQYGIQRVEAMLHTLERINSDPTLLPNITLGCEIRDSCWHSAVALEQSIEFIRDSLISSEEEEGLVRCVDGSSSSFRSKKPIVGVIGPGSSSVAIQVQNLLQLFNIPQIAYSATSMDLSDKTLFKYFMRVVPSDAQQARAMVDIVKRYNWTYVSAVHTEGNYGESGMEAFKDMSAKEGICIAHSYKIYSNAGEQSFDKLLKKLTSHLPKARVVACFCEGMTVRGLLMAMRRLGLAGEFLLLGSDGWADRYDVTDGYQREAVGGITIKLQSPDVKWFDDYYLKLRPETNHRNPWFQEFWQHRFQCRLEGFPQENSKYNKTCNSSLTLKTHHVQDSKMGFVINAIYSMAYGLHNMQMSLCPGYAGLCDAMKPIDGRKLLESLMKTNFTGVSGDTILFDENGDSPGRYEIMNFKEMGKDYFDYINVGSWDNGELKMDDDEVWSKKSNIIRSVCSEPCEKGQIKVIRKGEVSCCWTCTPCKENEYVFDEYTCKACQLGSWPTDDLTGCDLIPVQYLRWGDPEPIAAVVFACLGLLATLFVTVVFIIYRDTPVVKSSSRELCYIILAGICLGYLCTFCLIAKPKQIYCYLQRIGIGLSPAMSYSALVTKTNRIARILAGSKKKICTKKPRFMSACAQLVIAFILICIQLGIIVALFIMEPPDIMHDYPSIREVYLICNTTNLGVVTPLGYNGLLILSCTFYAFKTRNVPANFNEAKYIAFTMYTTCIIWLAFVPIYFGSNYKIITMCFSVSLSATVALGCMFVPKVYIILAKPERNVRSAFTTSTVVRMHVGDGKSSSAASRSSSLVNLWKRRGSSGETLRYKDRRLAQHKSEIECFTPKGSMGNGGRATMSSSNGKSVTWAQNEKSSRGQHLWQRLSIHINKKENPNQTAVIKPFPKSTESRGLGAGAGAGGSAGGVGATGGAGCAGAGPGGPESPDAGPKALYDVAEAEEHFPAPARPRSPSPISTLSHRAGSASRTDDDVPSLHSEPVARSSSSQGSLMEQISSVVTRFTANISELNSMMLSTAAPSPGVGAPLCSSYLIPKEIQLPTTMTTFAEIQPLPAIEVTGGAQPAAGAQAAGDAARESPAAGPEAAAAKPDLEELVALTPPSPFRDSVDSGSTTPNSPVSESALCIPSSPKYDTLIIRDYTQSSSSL

Emax	SMILES
73 to 95%	Cc1nccc(N2CC[C@]3(CCC[C@H](NC(=O)c4cccc(Cl)c4)C3)C2=O)n1 (racemic) [Example 58]
73 to 95%	Cc1nccc(C(=O)N[C@H]2CCC[C@]3(CCN(c4cc(F)cc(F)c4)C3=O)C2)n1 (racemic) [Example 76, cis 2-Methyl-pyrimidine-4-carboxylic acid [2-(3,5-difluoro-phenyl)-1-oxo-2-aza-spiro[4.5]dec-7-yl]-amide]
73 to 95%	Cc1cc(C(=O)N[C@H]2CCC[C@]3(CCN(c4cccc(F)c4)C3=O)C2)ccn1 (racemic) [Example 78, cis-N-[2-(3-Fluoro-phenyl)-1-oxo-2-aza-spiro[4.5]dec-7-yl]-2-methyl-isonicotinamide]
73 to 95%	Cc1cccc(C(=O)N[C@H]2CCC[C@]3(CCN(c4ccnc(C)n4)C3=O)C2)c1 (racemic) [Example 84, cis-3-Methyl-N-[2-(2-methyl-pyrimidin-4-yl)-1-oxo-2-aza-spiro [4.5]dec-7-yl]-benzamide]
88 to 93%	O=C(N[C@@H]1CC(F)(F)C[C@@]2(CCN(c3cccc(F)c3)C2=O)C1)c1ccccn1 (racemic) [Example 97, cis-Pyridine-2-carboxylic acid [9,9-difluoro-2-(3-fluoro-phenyl)-1-oxo-2-aza-spiro[4.5]dec-7-yl]-amide]
47 to 93%	Cc1cccc(C(=O)N[C@@H]2CC(F)(F)C[C@@]3(CCN(c4ccc(F)cn4)C3=O)C2)n1 (racemic) [Example 109, cis-6-Methyl-pyridine-2-carboxylic acid [9,9-difluoro-2-(5-fluoro-pyridin-2-yl)-1-oxo-2-aza-spiro[4.5]dec-7-yl]-amide]
47 to 93%	O=C(N[C@@H]1CC(F)(F)C[C@@]2(CCN(c3cc(F)cc(F)c3)C2=O)C1)c1ccccn1 (racemic) [Example 110, cis-Pyridine-2-carboxylic acid [2-(3,5-difluoro-phenyl)-9,9-difluoro-1-oxo-2-aza-spiro[4.5]dec-7-yl]-amide]
47 to 93%	Cc1nccc(N2CC[C@@]3(C[C@@H](NC(=O)c4cccc(F)c4)CC(F)(F)C3)C2=O)n1 (racemic) [Example 128, cis-N-[9,9-Difluoro-2-(2-methyl-pyrimidin-4-yl)-1-oxo-2-aza-spiro[4.5]dec-7-yl]-3-fluoro-benzamide]
47 to 93%	Cc1nccc(C(=O)N[C@@H]2CC(F)(F)C[C@@]3(CCN(c4cccc(F)c4)C3=O)C2)n1 (racemic) [Example 129, cis-2-Methyl-pyrimidine-4-carboxylic acid [9,9-difluoro-2-(3-fluoro-phenyl)-1-oxo-2-aza-spiro[4.5]dec-7-yl]-amide]
73 to 95%	Cc1cncc(N2CC[C@]3(CCC[C@H](NC(=O)c4ccnc(C)n4)C3)C2=O)n1 (relative stereo) [Example 59, cis-2-Methyl-pyrimidine-4-carboxylic acid [2-(6-methyl-pyrazin-2-yl)-1-oxo-2-aza-spiro[4.5]dec-7-yl]-amide]
73 to 95%	Cc1nccc(C(=O)N[C@H]2CCC[C@]3(CCN(c4cccc(C#N)c4)C3=O)C2)n1 (relative stereo) [Example 60, cis-2-Methyl-pyrimidine-4-carboxylic acid [2-(3-cyano-phenyl)-1-oxo-2-aza-spiro [4.5]dec-7-yl]-amide]
73 to 95%	Cc1nccc(C(=O)N[C@H]2CCC[C@]3(CCN(c4cccc(C(F)(F)F)n4)C3=O)C2)n1 (relative stereo) [Example 61, cis-2-Methyl-pyrimidine-4-carboxylic acid [1-oxo-2-(6-trifluoromethyl-pyridin-2-yl)-2-aza-spiro[4.5]dec-7-yl]-amide]
73 to 95%	Cc1cccc(C(=O)N[C@H]2CCC[C@]3(CCN(c4ccnc(C)n4)C3=O)C2)n1 (relative stereo) [Example 62, cis-6-methyl-pyridine-2-carboxylic acid [2-(2-methyl-pyrimidin-4-yl)-1-oxo-2-aza-spiro[4.5]dec-7-yl]-amide]
73 to 95%	Cc1ccc(N2CC[C@]3(CCC[C@H](NC(=O)c4cccc(C)n4)C3)C2=O)cn1 (relative stereo) [Example 63, cis-6-Methyl-pyridine-2-carboxylic acid [2-(6-methyl-pyridin-3-yl)-1-oxo-2-aza-spiro[4.5]dec-7-yl]-amide]
73 to 95%	Cc1cccc(C(=O)N[C@H]2CCC[C@]3(CCN(c4cncc(F)c4)C3=O)C2)n1 (relative stereo) [Example 64, cis-6-Methyl-pyridine-2-carboxylic acid [2-(5-fluoro-pyridin-3-yl)-1-oxo-2-aza-spiro[4.5]dec-7-yl]-amide]
73 to 95%	Cc1nccc(N2CC[C@]3(CCC[C@H](NC(=O)c4cccc(F)c4)C3)C2=O)n1 (relative stereo) [Example 65, cis-3-Fluoro-N-[2-(2-methyl-pyrimidin-4-yl)-1-oxo-2-aza-spiro[4.5]dec-7-yl]-benzamide]
73 to 95%	Cc1cc(N2CC[C@]3(CCC[C@H](NC(=O)c4cccc(F)c4)C3)C2=O)ccn1 (relative stereo) [Example 66, cis-3-Fluoro-N-[2-(2-methyl-pyridin-4-yl)-1-oxo-2-aza-spiro[4.5]dec-7-yl]-benzamide]
73 to 95%	O=C(N[C@H]1CCC[C@]2(CCN(c3cccc(F)c3)C2=O)C1)c1ccc(F)cn1 (relative stereo) [Example 68, cis-5-Fluoro-pyridine-2-carboxylic acid [2-(3-fluoro-phenyl)-1-oxo-2-aza-spiro [4.5]dec-7-yl]-amide]
73 to 95%	Cc1nccc(C(=O)N[C@H]2CCC[C@]3(CCN(c4cccc(F)c4)C3=O)C2)n1 (relative stereo) [Example 69, cis-2-Methyl-pyrimidine-4-carboxylic acid [2-(3-fluoro-phenyl)-1-oxo-2-aza-spiro[4.5]dec-7-yl]-amide]
73 to 95%	O=C(N[C@H]1CCC[C@]2(CCN(c3cccc(F)c3)C2=O)C1)c1ccncn1 (relative stereo) [Example 70, cis-Pyrimidine-4-carboxylic acid [2-(3-fluoro-phenyl)-1-oxo-2-aza-spiro [4.5]dec-7-yl]-amide]
73 to 95%	Cc1cncc(N2CC[C@]3(CCC[C@H](NC(=O)c4cccc(C)n4)C3)C2=O)c1 (relative stereo) [Example 71, cis-6-Methyl-pyridine-2-carboxylic acid [2-(5-methyl-pyridin-3-yl)-1-oxo-2-aza-spiro[4.5]dec-7-yl]-amide]
73 to 95%	COc1cccc(N2CC[C@]3(CCC[C@H](NC(=O)c4cccc(C)n4)C3)C2=O)c1 (relative stereo) [Example 72, cis-6-Methyl-pyridine-2-carboxylic acid [2-(3-methoxy-phenyl)-1-oxo-2-aza-spiro[4.5]dec-7-yl]-amide]
73 to 95%	O=C(N[C@H]1CCC[C@]2(CCN(c3cncc(F)c3)C2=O)C1)c1ccccn1 (relative stereo) [Example 74, cis-Pyridine-2-carboxylic acid [2-(5-fluoro-pyridin-3-yl)-1-oxo-2-aza-spiro[4.5]dec-7-yl]-amide]
73 to 95%	O=C(N[C@H]1CCC[C@]2(CCN(c3ccc(F)c(F)c3)C2=O)C1)c1ccccn1 (relative stereo) [Example 75, cis-Pyridine-2-carboxylic acid [2-(3,4-difluoro-phenyl)-1-oxo-2-aza-spiro[4.5]dec-7-yl]-amide]
